Data: PMC10850145, “Hormonal steroids induce multidrug resistance and stress response genes in Neisseria gonorrhoeae by binding to MtrR” (Nature Communications, 2024)
“And” between values parts separate entries of the source, which are not always exact repeats. Equal entries are not always repeated.

Tests used:
[1] = target: T1, MtrR binding to rpoH operator (27mer) (Neisseria gonorrhoeae, UniProt P39897); test: Fluorescence polarization based DNA binding assay, rpoH operator; details: rpoH 27mer + 125 µM steroid
T1 construct: Hexa-histidine tag with TEV protease cleavage site (N, cleaved yes); made in house; host or cells: E. coli Rosetta Gami B(DE3) pLysS
T1 sequence (P39897 whole entry): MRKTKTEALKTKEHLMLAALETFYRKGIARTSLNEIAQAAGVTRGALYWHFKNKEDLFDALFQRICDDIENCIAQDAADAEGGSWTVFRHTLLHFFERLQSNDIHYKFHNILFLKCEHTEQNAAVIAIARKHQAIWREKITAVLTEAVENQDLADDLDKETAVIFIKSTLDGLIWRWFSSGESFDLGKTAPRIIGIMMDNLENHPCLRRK
Method: Fluorescence polarization based-DNA binding data were collected using a Panvera Beacon 2000 fluorescence polarization system (Invitrogen) and analyzed with Prism (Graphpad Software 9, 10). Purified MtrR was buffer exchanged into “DNA” binding buffer (150 mM NaCl, 20 mM Tris-HCl pH 7.5, 2.5% glycerol, 1 mM TCEP). […] The reported oligoduplexes containing the rpoH and mtrCDE binding site differ in lengths, 27mer and 21mer, respectively[17],[21]. […] BSA and dI-dC are included as carriers and to control for nonspecific DNA binding. Samples were excited at 490 nm and polarized emissions measured at 530 nm. Controls were run with no protein (DNA ± methanol, hormonal steroids) to ensure that millipolarization values were not affected by experimental conditions alone. The binding affinity of protein for DNA was determined using the following equation: P = Pf + (Pb – Pf) [M] / (Kd + [M]) where P is the measured polarization, Pf is the polarization of free DNA, Pb is the polarization of the completely bound DNA, Kd is the equilibrium dissociation constant, and M is the concentration of protein. Pb and Kd were determined by nonlinear least-squares analysis. At least three independent experimental measurements were averaged for each reported binding constant.

FA19-rpoH-lacZ = test: Gonococcal growth in liquid culture (GC broth) with hormones (Fig S7)

For `C[C@]12CC[C@@H]3c4ccc(O)cc4CC[C@H]3[C@@H]1CC[C@@H]2O` [β-Estradiol, β-estradiol], the “fluorescence polarization, MtrR titration” value (“fluorescence polarization” below) ([1]; MtrR WT dimer 0.00 nM) was 0.00 mP, the “fluorescence polarization” value ([1]; MtrR WT dimer 25.90 nM) was 3.74 mP and 5.72 mP and 6.73 mP and the “fluorescence polarization” value ([1]; MtrR WT dimer 35.50 nM) was 6.01 mP and 7.12 mP and 8.13 mP. The “fluorescence polarization” value ([1]; MtrR WT dimer 54.52 nM) was 8.01 mP and 9.55 mP and 10.56 mP, the “fluorescence polarization” value ([1]; MtrR WT dimer 73.35 nM) was 11.39 mP and 12.36 mP and the “fluorescence polarization” value ([1]; MtrR WT dimer 110.67 nM) was 12.31 mP and 14.15 mP and 15.93 mP. For the same molecule, the “fluorescence polarization” value ([1]; MtrR WT dimer 147.65 nM) was 15.17 mP and 15.72 mP and 17.43 mP, the “fluorescence polarization” value ([1]; MtrR WT dimer 220.59 nM) was 18.17 mP and 19.19 mP and 21.36 mP and the “fluorescence polarization” value ([1]; MtrR WT dimer 292.55 nM) was 20.01 mP and 21.72 mP and 23.36 mP. The “fluorescence polarization” value ([1]; MtrR WT dimer 363.86 nM) was 21.41 mP and 22.99 mP and 26.06 mP, the “fluorescence polarization” value ([1]; MtrR WT dimer 434.54 nM) was 23.51 mP and 24.99 mP and 26.53 mP and the “fluorescence polarization” value ([1]; MtrR WT dimer 504.61 nM) was 25.37 mP and 27.45 mP and 28.59 mP. For the same molecule, the “fluorescence polarization” value ([1]; MtrR WT dimer 574.07 nM) was 29.37 mP and 27.75 mP and 29.19 mP, the “growth curve reading after BLANKING” value (FA19-rpoH-lacZ; 0 hr, 0.1 µM) was 0.013 and the “growth curve reading, raw replicates” value (FA19-rpoH-lacZ; 0 hr, 0.1 µM) was 0.046. For the same molecule, the “growth curve reading after BLANKING” value (FA19-rpoH-lacZ; 0 hr, 1 µM) was 0.013, the “growth curve reading, raw replicates” value (FA19-rpoH-lacZ; 0 hr, 1 µM) was 0.046 and the “growth curve reading after BLANKING” value (FA19-rpoH-lacZ; 0 hr, 10 µM) was 0.013. For the same molecule, the “growth curve reading, raw replicates” value (FA19-rpoH-lacZ; 0 hr, 10 µM) was 0.046, the “growth curve reading after BLANKING” value (FA19-rpoH-lacZ; 0 hr, 25 µM) was 0.013 and the “growth curve reading, raw replicates” value (FA19-rpoH-lacZ; 0 hr, 25 µM) was 0.046. The “growth curve reading after BLANKING” value (FA19-rpoH-lacZ; 0 hr, 50 µM) was 0.013, the “growth curve reading, raw replicates” value (FA19-rpoH-lacZ; 0 hr, 50 µM) was 0.046 and the “growth curve reading after BLANKING” value (FA19-rpoH-lacZ; 1.18 hr, 0.1 µM) was 0.020. The “growth curve reading, raw replicates” value (FA19-rpoH-lacZ; 1.18 hr, 0.1 µM) was 0.052 and 0.053, the “growth curve reading after BLANKING” value (FA19-rpoH-lacZ; 1.18 hr, 1 µM) was 0.020 and the “growth curve reading, raw replicates” value (FA19-rpoH-lacZ; 1.18 hr, 1 µM) was 0.054 and 0.052. The “growth curve reading after BLANKING” value (FA19-rpoH-lacZ; 1.18 hr, 10 µM) was 0.020, the “growth curve reading, raw replicates” value (FA19-rpoH-lacZ; 1.18 hr, 10 µM) was 0.053 and 0.054 and the “growth curve reading after BLANKING” value (FA19-rpoH-lacZ; 1.18 hr, 25 µM) was 0.021. The “growth curve reading, raw replicates” value (FA19-rpoH-lacZ; 1.18 hr, 25 µM) was 0.053 and 0.056, the “growth curve reading after BLANKING” value (FA19-rpoH-lacZ; 1.18 hr, 50 µM) was 0.019 and the “growth curve reading, raw replicates” value (FA19-rpoH-lacZ; 1.18 hr, 50 µM) was 0.052 and 0.053. The “growth curve reading after BLANKING” value (FA19-rpoH-lacZ; 2 hr, 0.1 µM) was 0.030, the “growth curve reading, raw replicates” value (FA19-rpoH-lacZ; 2 hr, 0.1 µM) was 0.062 and 0.065 and the “growth curve reading after BLANKING” value (FA19-rpoH-lacZ; 2 hr, 1 µM) was 0.030. The “growth curve reading, raw replicates” value (FA19-rpoH-lacZ; 2 hr, 1 µM) was 0.063, the “growth curve reading after BLANKING” value (FA19-rpoH-lacZ; 2 hr, 10 µM) was 0.031 and the “growth curve reading, raw replicates” value (FA19-rpoH-lacZ; 2 hr, 10 µM) was 0.063 and 0.065. For the same molecule, the “growth curve reading after BLANKING” value (FA19-rpoH-lacZ; 2 hr, 25 µM) was 0.030, the “growth curve reading, raw replicates” value (FA19-rpoH-lacZ; 2 hr, 25 µM) was 0.062 and 0.064 and the “growth curve reading after BLANKING” value (FA19-rpoH-lacZ; 2 hr, 50 µM) was 0.030. The “growth curve reading, raw replicates” value (FA19-rpoH-lacZ; 2 hr, 50 µM) was 0.063, the “growth curve reading after BLANKING” value (FA19-rpoH-lacZ; 3 hr, 0.1 µM) was 0.041 and the “growth curve reading, raw replicates” value (FA19-rpoH-lacZ; 3 hr, 0.1 µM) was 0.076 and 0.072. The “growth curve reading after BLANKING” value (FA19-rpoH-lacZ; 3 hr, 1 µM) was 0.041, the “growth curve reading, raw replicates” value (FA19-rpoH-lacZ; 3 hr, 1 µM) was 0.074 and 0.073 and the “growth curve reading after BLANKING” value (FA19-rpoH-lacZ; 3 hr, 10 µM) was 0.043. For the same molecule, the “growth curve reading, raw replicates” value (FA19-rpoH-lacZ; 3 hr, 10 µM) was 0.079 and 0.074, the “growth curve reading after BLANKING” value (FA19-rpoH-lacZ; 3 hr, 25 µM) was 0.044 and the “growth curve reading, raw replicates” value (FA19-rpoH-lacZ; 3 hr, 25 µM) was 0.078 and 0.075. For the same molecule, the “growth curve reading after BLANKING” value (FA19-rpoH-lacZ; 3 hr, 50 µM) was 0.040, the “growth curve reading, raw replicates” value (FA19-rpoH-lacZ; 3 hr, 50 µM) was 0.074 and 0.072 and the “growth curve reading after BLANKING” value (FA19-rpoH-lacZ; 4 hr, 0.1 µM) was 0.055. For the same molecule, the “growth curve reading, raw replicates” value (FA19-rpoH-lacZ; 4 hr, 0.1 µM) was 0.087 and 0.090, the “growth curve reading after BLANKING” value (FA19-rpoH-lacZ; 4 hr, 1 µM) was 0.056 and the “growth curve reading, raw replicates” value (FA19-rpoH-lacZ; 4 hr, 1 µM) was 0.089 and 0.088. For the same molecule, the “growth curve reading after BLANKING” value (FA19-rpoH-lacZ; 4 hr, 10 µM) was 0.057, the “growth curve reading, raw replicates” value (FA19-rpoH-lacZ; 4 hr, 10 µM) was 0.088 and 0.092 and the “growth curve reading after BLANKING” value (FA19-rpoH-lacZ; 4 hr, 25 µM) was 0.060. The “growth curve reading, raw replicates” value (FA19-rpoH-lacZ; 4 hr, 25 µM) was 0.093, the “growth curve reading after BLANKING” value (FA19-rpoH-lacZ; 4 hr, 50 µM) was 0.052 and the “growth curve reading, raw replicates” value (FA19-rpoH-lacZ; 4 hr, 50 µM) was 0.082 and 0.088. For the same molecule, the “growth curve reading after BLANKING” value (FA19-rpoH-lacZ; 5 hr, 0.1 µM) was 0.072, the “growth curve reading, raw replicates” value (FA19-rpoH-lacZ; 5 hr, 0.1 µM) was 0.104 and 0.106 and the “growth curve reading after BLANKING” value (FA19-rpoH-lacZ; 5 hr, 1 µM) was 0.072. The “growth curve reading, raw replicates” value (FA19-rpoH-lacZ; 5 hr, 1 µM) was 0.105, the “growth curve reading after BLANKING” value (FA19-rpoH-lacZ; 5 hr, 10 µM) was 0.071 and the “growth curve reading, raw replicates” value (FA19-rpoH-lacZ; 5 hr, 10 µM) was 0.103 and 0.105. For the same molecule, the “growth curve reading after BLANKING” value (FA19-rpoH-lacZ; 5 hr, 25 µM) was 0.076, the “growth curve reading, raw replicates” value (FA19-rpoH-lacZ; 5 hr, 25 µM) was 0.113 and 0.106 and the “growth curve reading after BLANKING” value (FA19-rpoH-lacZ; 5 hr, 50 µM) was 0.065. For the same molecule, the “growth curve reading, raw replicates” value (FA19-rpoH-lacZ; 5 hr, 50 µM) was 0.094 and 0.103, the “growth curve reading after BLANKING” value (FA19-rpoH-lacZ; 5.95 hr, 0.1 µM) was 0.090 and the “growth curve reading, raw replicates” value (FA19-rpoH-lacZ; 5.95 hr, 0.1 µM) was 0.124 and 0.123. The “growth curve reading after BLANKING” value (FA19-rpoH-lacZ; 5.95 hr, 1 µM) was 0.093, the “growth curve reading, raw replicates” value (FA19-rpoH-lacZ; 5.95 hr, 1 µM) was 0.126 and 0.125 and the “growth curve reading after BLANKING” value (FA19-rpoH-lacZ; 5.95 hr, 10 µM) was 0.086. For the same molecule, the “growth curve reading, raw replicates” value (FA19-rpoH-lacZ; 5.95 hr, 10 µM) was 0.118 and 0.119, the “growth curve reading, raw replicates” value (FA19-rpoH-lacZ; 5.95 hr, 25 µM) was 0.134 and 0.124 and the “growth curve reading after BLANKING” value (FA19-rpoH-lacZ; 5.95 hr, 50 µM) was 0.083. For the same molecule, the “growth curve reading, raw replicates” value (FA19-rpoH-lacZ; 5.95 hr, 50 µM) was 0.110 and 0.122, the “growth curve reading, raw replicates” value (FA19-rpoH-lacZ; 6.82 hr, 0.1 µM) was 0.137 and 0.133 and the “growth curve reading, raw replicates” value (FA19-rpoH-lacZ; 6.82 hr, 1 µM) was 0.143 and 0.139. The “growth curve reading after BLANKING” value (FA19-rpoH-lacZ; 6.82 hr, 10 µM) was 0.092, the “growth curve reading, raw replicates” value (FA19-rpoH-lacZ; 6.82 hr, 10 µM) was 0.127 and 0.123 and the “growth curve reading after BLANKING” value (FA19-rpoH-lacZ; 6.82 hr, 25 µM) was 0.114. For the same molecule, the “growth curve reading, raw replicates” value (FA19-rpoH-lacZ; 6.82 hr, 25 µM) was 0.156 and 0.139 and the “growth curve reading, raw replicates” value (FA19-rpoH-lacZ; 6.82 hr, 50 µM) was 0.124 and 0.136.
